The conditions of data set [1]: Crystal; DSC.
Data set [2] can be described thus: Molar enthalpy of transition or fusion. The conditions noted are these: Crystal; DSC.

± gives the expanded uncertainty stated by the source.

On to `CC[C@@H](C(N)=O)N1CCCC1=O` [(S)-2-(2-oxopyrrolidin-1-yl)butanamide], for which the Triple point temperature in data set [1] was determined as 389.85 ± 1.2 K. In addition, the “Molar enthalpy of transition or fusion” value in data set [2] was determined as 7.07 ± 0.239 kcal/mol.

Values taken from the NIST ThermoML archive (doi:10.1021/acs.jced.8b00720).
